Our source for the inhibition values is ChEMBL document CHEMBL4392875, “Rearranged Clerodane Diterpenoids from the Stems of Tinospora baenzigeri” (2019).

Structures are written as SMILES.

The subject of the experiment is HepG2. Put plainly: Hepatoprotective activity in human HepG2 cells assessed as inhibition of APAP-induced cell damage at 10 uM by MTT assay relative to control. The experiment is classed as functional.
Consider `C[C@@]12C[C@H](C3=CC(=O)O[C@@H]3O)OC(=O)C1=CC[C@]1(C)[C@H]2C[C@H]2COC(=O)[C@]21O`, for which the inhibition at 10 µM was 4.9%. As for `COC(=O)[C@H]1O[C@H]2C[C@]1(C)C(CCCO[C@@H]1O[C@H](CO)[C@@H](O)[C@H](O)[C@H]1O)[C@]1(C)C[C@@H](c3ccoc3)OC(=O)[C@H]21` (stereo partly specified), the figure is -24.9%.

Turning to `C[C@@H](O)/C=C/C1[C@]2(C)CO[C@@]1(C)C[C@@H](O)C2` (stereo partly specified), the inhibition at 10 µM was found to be 19.2%. With `C[C@@]12C[C@@H](c3ccoc3)OC(=O)C1=CC[C@]1(C)[C@H]2C[C@H]2COC(=O)[C@]21OC1O[C@H](CO)[C@@H](O)[C@H](O)[C@H]1O` (stereo partly specified), the inhibition at 10 µM was found to be 3.8%. As for `C[C@@]12C[C@@H](c3ccoc3)OC(=O)C1=CC[C@]1(C)[C@H]2C[C@H]2COC(=O)[C@]21O`, the figure is 6.4%; as for `C[C@@]12C[C@H](c3ccoc3)OC(=O)C1=CC[C@]1(C)[C@H]2C[C@H]2COC(=O)[C@]21O`, 6.6%; as for `COc1cc([C@@H]2OC[C@@H]3C(=O)OC[C@@H]32)cc(OC)c1O`, 17%.

For `COC(=O)c1cc(OC)c2c(c1-c1c(CO)cc(OC)c3c1OCO3)OCO2` [BICYCLOL], the inhibition at 10 µM came out at 15.7%. As for `COc1cc(C[C@H]2CO[C@H](c3ccc(O)c(OC)c3)[C@H]2CO)ccc1O` [LARICIRESINOL], the figure is -4.3%. As to `O=C(/C=C/c1ccc(O)cc1)NCCc1ccc(O)cc1` [N-P-COUMAROYL TYRAMINE], the inhibition at 10 µM was found to be 39%. As for `COc1cc(/C=C/C(=O)NCCc2ccc(O)cc2)ccc1O` [N-TRANS-FERULOYL TYRAMINE], the figure is 3.5%.
